In PubChem BioAssay (NCI) one finds GI50 and TGI data, which are given here for eight compounds.

Test systems include ACHN renal; DU-145 prostate; EKVX NSCLC; HOP-62 NSCLC; HOP-92 NSCLC; LOX IMVI melanoma; NCI/ADR-RES ovarian; RXF 393 renal; SK-MEL-2 melanoma; UO-31 renal.
Common to all, as to experiment: inhibition of tumour cell growth, NCI panel, 48 h

Values joined by “and” are separate entries in the source; they are usually repeats but may differ in a detail not shown here. Identical values can stand only once.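 Cultured in 96-well plates, cells were exposed to test compound for 48 hours across five concentrations. Here, GI50 denotes the concentration required for 50% inhibition of growth. At the TGI there is no net growth.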 A value given as a limit tells only on which side of the number the result lay.

Take `O=C1Nc2ccccc2/C1=C\c1c(-c2ccccc2)nc2sccn12`: the GI50 in the test on ACHN renal was 2.13 µM; in the test on DU-145 prostate, 7.31 µM; with EKVX NSCLC, 7.84 µM; with HOP-62 NSCLC, 2.32 µM; with HOP-92 NSCLC, 2.14 µM; in the test on LOX IMVI melanoma it was 2.09 µM. The GI50 in the test with NCI/ADR-RES ovarian was 1.17 µM; in the test on RXF 393 renal, 3.35 µM; in the test with SK-MEL-2 melanoma it was 5.87 µM; with UO-31 renal, 2.55 µM. In addition, the TGI in the test with ACHN renal is 14.5 µM; in the test on DU-145 prostate, 31.1 µM; with EKVX NSCLC it was 32.6 µM; in the test with HOP-62 NSCLC, 9.44 µM; with HOP-92 NSCLC, 7.87 µM; in the test on LOX IMVI melanoma, 13.8 µM. Further, the TGI with NCI/ADR-RES ovarian was 5.13 µM; in the test on RXF 393 renal it was 26.6 µM; in the test on SK-MEL-2 melanoma, 22.6 µM; in the test with UO-31 renal, 13.3 µM.

With `Cc1cc(Cl)nc2ccc(Cc3ccc4nc(Cl)cc(C)c4c3)cc12`, the TGI with ACHN renal is 70.8 µM; with DU-145 prostate it was more than 100 µM; with EKVX NSCLC it was more than 100 µM; in the test on HOP-62 NSCLC, 96.9 µM; in the test with HOP-92 NSCLC, more than 100 µM; in the test on LOX IMVI melanoma it was more than 100 µM. The TGI in the test with NCI/ADR-RES ovarian was more than 100 µM; in the test with RXF 393 renal it was 27.6 µM; in the test on SK-MEL-2 melanoma it was more than 100 µM; with UO-31 renal, more than 100 µM.

With `Cc1ccc(-c2nc3nc(-c4ccc(F)cc4)nc(N4CCNCC4)c3o2)cc1`, the GI50 is 1.79 µM in the test with ACHN renal; 2.6 µM in the test with DU-145 prostate; 4.53 µM in the test with EKVX NSCLC; 16.4 µM in the test with HOP-62 NSCLC; 4.5 µM in the test with HOP-92 NSCLC; 1.66 µM in the test on LOX IMVI melanoma. Further, the GI50 is 2.11 µM with NCI/ADR-RES ovarian, 10.7 µM with RXF 393 renal, 14.9 µM in the test on SK-MEL-2 melanoma and 1.46 µM in the test on UO-31 renal. Also, the TGI in the test on ACHN renal amounted to 3.19 µM; in the test on DU-145 prostate, 6.45 µM; with EKVX NSCLC, 17.3 µM; with HOP-62 NSCLC, 37.9 µM; in the test on HOP-92 NSCLC, 22.6 µM; in the test with LOX IMVI melanoma it was 3.07 µM. Besides, the TGI in the test with NCI/ADR-RES ovarian was 4.47 µM; in the test with RXF 393 renal, 23.2 µM; with SK-MEL-2 melanoma, 35.4 µM; with UO-31 renal it was 2.79 µM.

For `CC1CCCC(C(=O)CC2CC(=O)NC(=O)C2)C1=O` (configuration not stated), the TGI with ACHN renal, in the test on DU-145 prostate, with EKVX NSCLC, in the test on HOP-62 NSCLC, with HOP-92 NSCLC and with LOX IMVI melanoma was more than 100 µM throughout. Further, the TGI in the test on NCI/ADR-RES ovarian, in the test with RXF 393 renal, with SK-MEL-2 melanoma and with UO-31 renal was more than 100 µM in each case.

With `CC(c1cc(Cl)ccc1O)c1cc(Cl)ccc1O`, the GI50 was 3.99 µM in the test with ACHN renal; 5.2 µM with DU-145 prostate; 2.98 µM in the test with EKVX NSCLC; 3.76 µM in the test on HOP-62 NSCLC; 1.71 µM in the test with HOP-92 NSCLC; 3.97 µM in the test on LOX IMVI melanoma. For the same compound, the GI50 with NCI/ADR-RES ovarian is 3.15 µM; with RXF 393 renal, 3.42 µM; in the test with SK-MEL-2 melanoma, 2.98 µM; in the test with UO-31 renal, 2.3 µM. For the same compound, the TGI with ACHN renal was 14.1 µM; in the test with DU-145 prostate, 16.3 µM; with EKVX NSCLC, 13.4 µM; in the test with HOP-62 NSCLC it was 17.5 µM; in the test on HOP-92 NSCLC, 5.35 µM; in the test with LOX IMVI melanoma, 17.1 µM. Also, the TGI in the test on NCI/ADR-RES ovarian is 9.16 µM; with RXF 393 renal, 9.7 µM; in the test on SK-MEL-2 melanoma, 7.23 µM; in the test with UO-31 renal it was 10.8 µM.

As for `N#CC1C[C@@H]2CC3(CCC2CN1C(=O)c1ccccc1)OCCO3` (some centres not stated), the TGI in the test on ACHN renal, in the test on DU-145 prostate, in the test on EKVX NSCLC, with HOP-62 NSCLC, in the test on HOP-92 NSCLC and in the test on LOX IMVI melanoma was more than 100 µM throughout. The TGI was more than 100 µM with NCI/ADR-RES ovarian, more than 100 µM in the test on RXF 393 renal, more than 21.6 µM in the test with SK-MEL-2 melanoma and more than 100 µM with UO-31 renal. For the same compound, the GI50 with DU-145 prostate and in the test with NCI/ADR-RES ovarian was more than 100 µM each time.

For the compound `Cc1ccc(F)c(NC(=O)Nc2ccc(-c3cccc4[nH]nc(N)c34)cc2)c1`, the GI50 was 3.14 µM and 2.85 µM with ACHN renal; 3.68 µM and 3.37 µM with DU-145 prostate; 3.58 µM and 3.52 µM in the test on EKVX NSCLC; 4.07 µM and 3.12 µM in the test with HOP-62 NSCLC; 3.67 µM and 3.17 µM with HOP-92 NSCLC; 1.8 µM and 2.03 µM in the test on LOX IMVI melanoma. In addition, the GI50 in the test with NCI/ADR-RES ovarian is 3.4 µM and 3.81 µM; with RXF 393 renal it was 1.96 µM and 1.92 µM; in the test on SK-MEL-2 melanoma it was 2.67 µM and 2.87 µM; in the test with UO-31 renal, 2.79 µM and 2.91 µM. In addition, the TGI was 11.4 µM and > 10 µM in the test on ACHN renal; 13.1 µM and > 10 µM in the test with DU-145 prostate; 16.6 µM and > 10 µM with EKVX NSCLC; 16.2 µM and > 10 µM with HOP-62 NSCLC; 14.4 µM and 8.25 µM with HOP-92 NSCLC; 3.62 µM and 4.97 µM in the test on LOX IMVI melanoma. Also, the TGI in the test on NCI/ADR-RES ovarian is 18.6 µM and > 10 µM; with RXF 393 renal, 4.34 µM and 4.96 µM; in the test with SK-MEL-2 melanoma, 5.89 µM and 9.2 µM; in the test on UO-31 renal, 11.3 µM and > 10 µM.

Turning to `CN1CC=C(c2cc(NC(=O)Nc3ccc(Oc4ccnc(NC(=O)C5CC5)c4)c(F)c3)cc(C(F)(F)F)c2)CC1`, the GI50 with ACHN renal is 0.968 µM; with DU-145 prostate, 0.212 µM; in the test on EKVX NSCLC it was 0.359 µM; in the test on HOP-62 NSCLC, 0.194 µM; in the test on HOP-92 NSCLC it was 1.55 µM; in the test on LOX IMVI melanoma, 0.181 µM. In addition, the GI50 was 2.71 µM in the test with NCI/ADR-RES ovarian, 0.172 µM in the test with RXF 393 renal, 1.13 µM with SK-MEL-2 melanoma and 1.58 µM in the test on UO-31 renal. Moreover, the TGI stood at 2.67 µM in the test on ACHN renal; 1.62 µM in the test on DU-145 prostate; 1.91 µM in the test with EKVX NSCLC; 1.12 µM in the test on HOP-62 NSCLC; 3.58 µM in the test on HOP-92 NSCLC; 0.645 µM in the test on LOX IMVI melanoma. The TGI in the test with NCI/ADR-RES ovarian was 13.4 µM; in the test with RXF 393 renal it was 0.411 µM; in the test on SK-MEL-2 melanoma, 2.26 µM; with UO-31 renal, 3.57 µM.
